Tests used:
[1] = Solubility of antioxidants in 2-ethylhexanol; conditions: 25° C., amount varied from 100 ppm to 1,000 ppm
Protocol: The solubility of different antioxidants in oxo alcohol was analyzed. Alkanox™ 240, Lowinox™ CA22, and Anox™ 1315, were added to 2-ethylhexanol.

[2] = Color analysis of plasticizers made from 2-ethylhexanol with antioxidant (Platinum-Cobalt Scale, ASTM D1209); format: physicochemical
Protocol: The oxo alcohol 2-ethylhexanol was mixed with different antioxidants (Anox™ 1315 and Lowinox™ CA22). Plasticizers dioctyl phthalate (DOP) and/or trioctyl trimellitate (TOTM) were then synthesized using the different 2-ethylhexanol mixtures. The DOP plasticizer was produced using a 2-ethylhexanol to phthalic acid molar ratio of 2.35 to 1. The TOTM plasticizer was produced using a 2-ethylhexanol to […] molar ratio of 3.5 to 1. The plasticizers were synthesized a temperature of 210° C. for a period of 4 hours. Phosphorous-based antioxidants, nitrogen-based antioxidants, and sulfur-based antioxidants were all found to be problematic. For example, it was observed during downstream application that when phosphorus-based antioxidants were used, initially poor solubility in the oxo alcohol was a problem and then corrosion of the reactor. Not to be limited by theory, it is believed that during the production of the plasticizers, the phosphorus-based antioxidant would be hydrolyzed, producing phosphorus acid, which corroded the reactor. Nitrogen-based antioxidants and sulfur-based antioxidants, on the other hand, adversely affected the color of the resultant plasticizers.
Color analysis of the resulting plasticizers was conducted using the Platinum-Cobalt Scale in accordance with ASTM D1209, as updated in 2011. The best in class specification for TOTM plasticizer is a score of 30 and for the DOP plasticizer is a score of 25 on the Platinum-Cobalt scale. As is shown in Table 3, trioctyl trimellitate and dioctyl phthalate were produced using 2-ethylhexanol comprising the specified antioxidant.

[3] = Stability: aldehyde impurity levels in 2-ethylhexanol admixed with antioxidant, heated at 50° C., analysed by GC; format: physicochemical; conditions: 10 ppm in 2-ethylhexanol, heated conditions (50° C.)
Protocol: Experimental trials were conducted in accordance with the present method. The effects of antioxidants on aldehyde impurity levels in 2-ethlyhexanol were analyzed. A fixed volume of 2-ethylhexanol was admixed with an antioxidant and was heated at 50° C. for three weeks in a hot metal block. The 50° C. temperature mimicked harsh weather conditions during which accelerated autoxidation can occur. At the end of each week (intervals of 168 hours), a sample was drawn and analyzed using gas chromatography (GC). A control sample (where antioxidant was not added) was also analyzed. Lowinox™ CA22 was further examined at lower concentrations of 10 ppm and 20 ppm.

[4] = 2-ethylhexanol with 10 ppm antioxidant

Platinum-Cobalt score of resulting DOP [2, 4]	Platinum-Cobalt score of resulting TOTM [2, 4]	Platinum-Cobalt score of resulting TOTM ([2]; 2-ethylhexanol with 50 ppm antioxidant)	Time for which aldehyde growth was stopped [3]	SMILES	Solubility in 2-ethylhexanol [1]
–	–	–	–	CC(C)(C)c1ccc(OP(Oc2ccc(C(C)(C)C)cc2C(C)(C)C)Oc2ccc(C(C)(C)C)cc2C(C)(C)C)c(C(C)(C)C)c1 [Alkanox™ 240, phenol, 2,4-bis(1,1-dimetylethyl)-phosphite (3:1)]	not soluble
20	28	30	over 3 weeks	Cc1cc(O)c(C(C)(C)C)cc1C(C)CC(c1cc(C(C)(C)C)c(O)cc1C)c1cc(C(C)(C)C)c(O)cc1C (stereo not drawn) [Lowinox™ CA22, 1,1,3-tris(2′-methyl-4′-hydroxy-5′-t-butylphenyl)butane]	soluble

— US20210323901A1, “METHOD OF STORING AND/OR TRANSPORTING OXO ALCOHOL” (SABIC GLOBAL TECHNOLOGIES B.V., priority 2018, published 2021)
